Reference: US20230059136A1, “THE COMPOUNDS AND COMPOSITIONS FOR TREATING CONDITIONS ASSOCIATED WITH NLRP ACTIVITY” (Novartis AG, priority 2018, published 2023)

Tested on: IL-1β production in PMA-differentiated THP-1 cells
Experiment: IL-1β production in PMA-differentiated THP-1 cells stimulated with gramicidin (hTHP-1 assay containing 2% fetal bovine serum)
Type: cell-based, human
Details: Homo sapiens, THP-1, Table B1; 2% fetal bovine serum; cells printed as numeric bound; read-out: hTHP-1 IC50 (Average IC50 of compounds in hTHP-1 assay)
How it was run: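 THP-1 cells were differentiated with PMA 20 ng/ml for 16-18 h, then plated at 50,000 cells/well in RPMI with 2% FBS. They were preincubated 1 h with compound (100–0.0017 μM final, 0.37% DMSO), then stimulated with gramicidin 5 μM for 2 h. Supernatant IL-1β was measured by HTRF.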

Row | SMILES | IC50 [µM]
1 | CC(C)c1cc(COC2CCCC2)cc(C(C)C)c1CC(=O)N=S(N)(=O)c1cc(C(C)(C)O)n(-c2ccc(F)cc2)n1 (single isomer, unassigned) [Example 284, (S) or (R)-N-(amino(1-(4-fluorophenyl)-5-(2-hydroxypropan-2-yl)-1H-pyrazol-3-yl)(oxo)-λ^6-sulfaneylidene)-2-(4-((cyclopentyloxy)methyl)-2,6-diisopropylphenyl) acetamide] | > 30
2 | CC(C)c1cc(C(=O)CC2CCCCC2)cc(C(C)C)c1CC(=O)N=S(N)(=O)c1cc(C(C)(C)O)n(-c2ccccc2)n1 (single isomer, unassigned) [Example 286, (S) or (R)-N-(amino (5-(2-hydroxypropan-2-yl)-1-phenyl-1H-pyrazol-3-yl)(oxo)-λ^6-sulfaneylidene)-2-(4-(2-cyclohexylacetyl)-2,6-diisopropylphenyl) acetamide] | > 30

Next, values leading:

Row | IC50 [µM] | SMILES
3 | > 30 | CC(C)c1cc(C#CC2CCCCC2)cc(C(C)C)c1CC(=O)N=S(N)(=O)c1cc(C(C)(C)O)n(-c2ccccc2)n1 (single isomer, unassigned) [Example 280, (S) or (R)-N-(amino (5-(2-hydroxypropan-2-yl)-1-phenyl-1H-pyrazol-3-yl)(oxo)-λ^6-sulfaneylidene)-2-(4-(cyclohexylethynyl)-2,6-diisopropylphenyl) acetamide]
4 | > 30 | CC(C)c1cc(CCC2CCCCC2)cc(C(C)C)c1CC(=O)N=S(N)(=O)c1cc(C(C)(C)O)n(-c2ccccc2)n1 (single isomer, unassigned) [Example 282, (S) or (R)-N-(amino(5-(2-hydroxypropan-2-yl)-1-phenyl-1H-pyrazol-3-yl)(oxo)-λ^6-sulfaneylidene)-2-(4-(2-cyclohexylethyl)-2,6-diisopropylphenyl) acetamide]

Same assay, conditions: Homo sapiens, THP-1, Table B1; 2% fetal bovine serum; class symbols; read-out: hTHP-1 IC50 (Average IC50 of compounds in hTHP-1 assay)

Row | IC50 [µM] | SMILES
5 | 1 to 5 | CC(C)c1cc(C#CC2CCCCC2)cc(C(C)C)c1CC(=O)N=S(N)(=O)c1cc(C(C)(C)O)n(-c2ccccc2)n1 (single isomer, unassigned) [Example 279, (R) or (S)-N-(amino(5-(2-hydroxypropan-2-yl)-1-phenyl-1H-pyrazol-3-yl)(oxo)-λ^6-sulfaneylidene)-2-(4-(cyclohexylethynyl)-2,6-diisopropylphenyl) acetamide]
6 | 5 to 30 | CC(C)c1cc(CCC2CCCCC2)cc(C(C)C)c1CC(=O)N=S(N)(=O)c1cc(C(C)(C)O)n(-c2ccccc2)n1 (single isomer, unassigned) [Example 281, (R) or (S)-N-(amino(5-(2-hydroxypropan-2-yl)-1-phenyl-1H-pyrazol-3-yl)(oxo)-λ^6-sulfaneylidene)-2-(4-(2-cyclohexylethyl)-2,6-diisopropylphenyl) acetamide]
7 | 0.2 to 1 | CC(C)c1cc(COC2CCCC2)cc(C(C)C)c1CC(=O)N=S(N)(=O)c1cc(C(C)(C)O)n(-c2ccc(F)cc2)n1 (single isomer, unassigned) [Example 283, (R) or (S)-N-(amino(1-(4-fluorophenyl)-5-(2-hydroxypropan-2-yl)-1H-pyrazol-3-yl)(oxo)-λ^6-sulfaneylidene)-2-(4-((cyclopentyloxy)methyl)-2,6-diisopropylphenyl) acetamide]
8 | 1 to 5 | CC(C)c1cc(C(=O)CC2CCCCC2)cc(C(C)C)c1CC(=O)N=S(N)(=O)c1cc(C(C)(C)O)n(-c2ccccc2)n1 (single isomer, unassigned) [Example 285, (R) or (S)-N-(amino(5-(2-hydroxypropan-2-yl)-1-phenyl-1H-pyrazol-3-yl)(oxo)-λ^6-sulfaneylidene)-2-(4-(2-cyclohexylacetyl)-2,6-diisopropylphenyl) acetamide]
9 | 0.04 to 0.2 | CC(C)c1cc(COC2CCCC2)cc(C(C)C)c1CC(=O)N=S(N)(=O)c1cnc(C(C)(C)O)s1 (single isomer, unassigned) [Example 287, (R) or (S)-N-(amino(2-(2-hydroxypropan-2-yl)thiazol-5-yl)(oxo)-λ^6-sulfaneylidene)-2-(4-((cyclopentyloxy)methyl)-2,6-diisopropylphenyl) acetamide]
